We go through six molecules from ChEMBL document CHEMBL5724914, “Linking interpersonal differences in gut microbiota composition and drug biotransformation activity” (2024).

The conditions of data set [1]: human gut metagenome, 24 h, 2 µM.
For data set [2] the following is noted: human gut metagenome, 24 h, 2 µM. This is another data set of the same source.
Data set [3] can be described thus: The drug is tested on Z-010 corresponding to metagenome with ENA study accession number: PRJEB37062 and ENA sample accession number: ERS12561810 for biotransformation under anaerobic condition. The drug concentrations were measured over 9 timepoints collected between 0 and 24 hours of incubation by liquid-chromatography-coupled mass spectrometry (LC–MS). The conditions noted are these: 2 µM.

The conditions of data set [4]: human gut metagenome, 24 h, 2 µM. This is another data set of the same source.
Data set [5] can be described thus: The drug is tested on Z-022 corresponding to mouse gut metagenome with ENA study accession number: PRJEB37062 and ENA sample accession number: ERS12561821 for biotransformation under anaerobic condition. The drug concentrations were measured over 9 timepoints collected between 0 and 24 hours of incubation by liquid-chromatography-coupled mass spectrometry (LC–MS). To be noted: 2 µM.

Data set [6] can be described thus: The drug is tested on WLS-350 corresponding to human gut metagenome with ENA study accession number: PRJEB37062 and ENA sample accession number: ERS12561789 for biotransformation under anaerobic condition. The drug concentrations were measured over 9 timepoints collected between 0 and 24 hours of incubation by liquid-chromatography-coupled mass spectrometry (LC–MS). The conditions noted are these: 2 µM.

The conditions of data set [7]: human gut metagenome, 24 h, 2 µM. The source holds these as a separate data set.
The conditions of data set [8]: human gut metagenome, 24 h, 2 µM. This is another data set of the same source.
The conditions of data set [9]: human gut metagenome, 24 h, 2 µM. The source holds these as a separate data set.
For data set [10] the following is noted: human gut metagenome, 24 h, 2 µM. This is another data set of the same source.
For data set [11] the following is noted: human gut metagenome, 24 h, 2 µM. This is another data set of the same source.
For data set [12] the following is noted: human gut metagenome, 24 h, 2 µM. The source holds these as a separate data set.
Data set [13] is described as follows: The drug is tested on Z-007 corresponding to rat gut metagenome with ENA study accession number: PRJEB37062 and ENA sample accession number: ERS12561807 for biotransformation under anaerobic condition. The drug concentrations were measured over 9 timepoints collected between 0 and 24 hours of incubation by liquid-chromatography-coupled mass spectrometry (LC–MS). The conditions noted are these: 2 µM.

The conditions of data set [14]: human gut metagenome, 24 h, 2 µM. This is another data set of the same source.
Data set [15] is described as follows: The drug is tested on Z-027 corresponding to metagenome with ENA study accession number: PRJEB37062 and ENA sample accession number: ERS12561826 for biotransformation under anaerobic condition. The drug concentrations were measured over 9 timepoints collected between 0 and 24 hours of incubation by liquid-chromatography-coupled mass spectrometry (LC–MS). To be noted: 2 µM.

A short description of data set [16]: The drug is tested on WLS-007 corresponding to human gut metagenome with ENA study accession number: PRJEB37062 and ENA sample accession number: ERS12561742 for biotransformation under anaerobic condition. The drug concentrations were measured over 9 timepoints collected between 0 and 24 hours of incubation by liquid-chromatography-coupled mass spectrometry (LC–MS). To be noted: 2 µM.

The conditions of data set [17]: human gut metagenome, 24 h, 2 µM. The source holds these as a separate data set.
For data set [18] the following is noted: human gut metagenome, 24 h, 2 µM. The source holds these as a separate data set.
A short description of data set [19]: The drug is tested on Z-023 corresponding to metagenome with ENA study accession number: PRJEB37062 and ENA sample accession number: ERS12561822 for biotransformation under anaerobic condition. The drug concentrations were measured over 9 timepoints collected between 0 and 24 hours of incubation by liquid-chromatography-coupled mass spectrometry (LC–MS). To be noted: 2 µM.

Data set [20] in a line: The drug is tested on Z-021 corresponding to metagenome with ENA study accession number: PRJEB37062 and ENA sample accession number: ERS12561820 for biotransformation under anaerobic condition. The drug concentrations were measured over 9 timepoints collected between 0 and 24 hours of incubation by liquid-chromatography-coupled mass spectrometry (LC–MS). The conditions noted are these: 2 µM.
Note: call rule not given here.

Regarding `CS(=O)(=O)O.OC(CCN1CCCCC1)(c1ccccc1)c1ccccc1` [PRIDINOL METHANESULFONATE], the “Bacterial Biotransformation” value is listed as “Compound NOT metabolized” in data set [1]; “Compound NOT metabolized” in data set [2]; “Compound NOT metabolized” in [3]; “Compound metabolized” in data set [4]; “Compound NOT metabolized” in data set [5]; “Compound NOT metabolized” in data set [6]. In addition, the “Bacterial Biotransformation” value in data set [7], in data set [8], in data set [9], in data set [10], in data set [11] and in data set [12] was “Compound NOT metabolized” throughout. Also, the “Bacterial Biotransformation” value was “Compound NOT metabolized” in data set [13]; “Compound metabolized” in [14]; “Compound NOT metabolized” in [15]; “Compound NOT metabolized” in data set [16]; “Compound NOT metabolized” in [17]; “Compound NOT metabolized” in [18]. Also, the “Bacterial Biotransformation” value in data set [19] and in data set [20] was “Compound NOT metabolized” in each case.
As to `CC(CN1c2ccccc2Sc2ccccc21)N(C)C` (stereo not given) [PROMETHAZINE], the “Bacterial Biotransformation” value in data set [1] was “Compound NOT metabolized”; in data set [2], “Compound NOT metabolized”; in [3] it was “Compound metabolized”; in [4], “Compound NOT metabolized”; in data set [5], “Compound NOT metabolized”; in data set [6], “Compound metabolized”. Moreover, the “Bacterial Biotransformation” value in [7] is “Compound NOT metabolized”; in [8], “Compound NOT metabolized”; in [9], “Compound metabolized”; in [10] it was “Compound NOT metabolized”; in data set [11], “Compound NOT metabolized”; in data set [12] it was “Compound metabolized”. The “Bacterial Biotransformation” value in data set [13] was “Compound NOT metabolized”; in [14], “Compound metabolized”; in data set [15], “Compound NOT metabolized”; in data set [16] it was “Compound NOT metabolized”; in data set [17] it was “Compound NOT metabolized”; in [18], “Compound NOT metabolized”. Moreover, the “Bacterial Biotransformation” value in [19] is recorded as “Compound metabolized”; in [20], “Compound NOT metabolized”.
Turning to `OCCOCCN1CCN(C2=Nc3ccccc3Sc3ccccc32)CC1` [QUETIAPINE], the “Bacterial Biotransformation” value in [1] is recorded as “Compound NOT metabolized”; in data set [2] it was “Compound NOT metabolized”; in [3] it was “Compound NOT metabolized”; in data set [4], “Compound metabolized”; in [5] it was “Compound NOT metabolized”; in data set [6], “Compound NOT metabolized”. Further, the “Bacterial Biotransformation” value is “Compound NOT metabolized” in data set [7]; “Compound NOT metabolized” in [8]; “Compound metabolized” in data set [9]; “Compound NOT metabolized” in data set [10]; “Compound NOT metabolized” in data set [11]; “Compound NOT metabolized” in data set [12]. In addition, the “Bacterial Biotransformation” value is “Compound NOT metabolized” in data set [13]; “Compound metabolized” in [14]; “Compound NOT metabolized” in data set [15]; “Compound NOT metabolized” in data set [16]; “Compound NOT metabolized” in data set [17]; “Compound metabolized” in data set [18]. In addition, the “Bacterial Biotransformation” value in [19] and in data set [20] was “Compound NOT metabolized” in each case.
In the case of `CCC(=O)NCC[C@@H]1CCc2ccc3c(c21)CCO3` [RAMELTEON], the “Bacterial Biotransformation” value in [1], in data set [2], in data set [3], in [4], in data set [5] and in [6] was “Compound metabolized” throughout. For the same molecule, the “Bacterial Biotransformation” value in [7] is “Compound NOT metabolized”; in data set [8], “Compound NOT metabolized”; in data set [9], “Compound metabolized”; in data set [10], “Compound metabolized”; in data set [11], “Compound metabolized”; in [12] it was “Compound metabolized”. The “Bacterial Biotransformation” value in [13] was “Compound NOT metabolized”; in data set [14], “Compound metabolized”; in data set [15], “Compound NOT metabolized”; in [16], “Compound NOT metabolized”; in data set [17], “Compound metabolized”; in [18], “Compound metabolized”. Further, the “Bacterial Biotransformation” value in data set [19] and in data set [20] was “Compound metabolized” throughout.
As to `CNC(=C[N+](=O)[O-])NCCSCc1ccc(CN(C)C)o1` [RANITIDINE], the “Bacterial Biotransformation” value is “Compound NOT metabolized” in data set [1]; “Compound metabolized” in data set [2]; “Compound metabolized” in data set [3]; “Compound metabolized” in [4]; “Compound metabolized” in data set [5]; “Compound NOT metabolized” in [6]. Further, the “Bacterial Biotransformation” value was “Compound NOT metabolized” in data set [7]; “Compound metabolized” in [8]; “Compound NOT metabolized” in data set [9]; “Compound NOT metabolized” in data set [10]; “Compound metabolized” in [11]; “Compound NOT metabolized” in data set [12]. Moreover, the “Bacterial Biotransformation” value in data set [13] was “Compound NOT metabolized”; in [14], “Compound NOT metabolized”; in data set [15], “Compound NOT metabolized”; in data set [16] it was “Compound NOT metabolized”; in data set [17], “Compound metabolized”; in data set [18] it was “Compound NOT metabolized”. Besides, the “Bacterial Biotransformation” value in data set [19] was “Compound metabolized”; in [20] it was “Compound NOT metabolized”.
For the molecule `Nc1nc2ccc(OC(F)(F)F)cc2s1` [RILUZOLE], the “Bacterial Biotransformation” value in data set [1] was “Compound metabolized”; in data set [2], “Compound NOT metabolized”; in data set [3], “Compound metabolized”; in [4], “Compound metabolized”; in data set [5], “Compound metabolized”; in data set [6], “Compound NOT metabolized”. For the same molecule, the “Bacterial Biotransformation” value in data set [7] is recorded as “Compound metabolized”; in [8], “Compound metabolized”; in [9] it was “Compound NOT metabolized”; in [10], “Compound NOT metabolized”; in [11] it was “Compound metabolized”; in data set [12], “Compound NOT metabolized”. Further, the “Bacterial Biotransformation” value in [13] is “Compound NOT metabolized”; in data set [14], “Compound metabolized”; in [15], “Compound NOT metabolized”; in data set [16], “Compound metabolized”; in [17], “Compound NOT metabolized”; in data set [18], “Compound NOT metabolized”. The “Bacterial Biotransformation” value in data set [19] and in data set [20] was “Compound metabolized” throughout.
